Values quoted from earlier work, collected in patent publication US20200246414A1, “COMPOSITIONS AND METHODS FOR THE TREATMENT OF CONSTIPATION AND OTHER AILMENTS OF THE GASTROINTESTINAL SYSTEM” (K.L.R.M., LLC, priority 2019, published 2020).

System: isolated gastric cells
Conditions: suspension of isolated gastric cells

CC(=O)N[C@H](C(=O)O)C(C)(C)SN=O (racemic) [S-nitroso-N-acetylpenicillamine]
mucus secretion / mucus release: stimulated mucus secretion

CCCC(=O)Nc1nc2c(ncn2C2O[C@H]3COP(=O)(O)O[C@@H]3[C@@H]2OC(=O)CCC)c(=O)[nH]1 (stereo partly shown) [Dibutyryl cyclic GMP]
mucus secretion / mucus release: increased the mucus release

CCCOc1ccccc1-c1nc2[nH]nnc2c(=O)[nH]1 [M and B 22948]
mucus secretion / mucus release: increased the mucus release

O=[N+]([O-])O[C@H]1CO[C@H]2[C@@H]1OC[C@H]2O[N+](=O)[O-] [isosorbide dinitrate]
mucus secretion / mucus release: stimulated mucus secretion
